According to publication PMC6940896, “Development of a Highly Efficient Hybrid Peptide That Increases Immunomodulatory Activity Via the TLR4-Mediated Nuclear Factor-κB Signaling Pathway” (International Journal of Molecular Sciences, 2019):
No end group written: not given here.

Columns and labels:
RAW264.7 cells = assay: Cytokine production in RAW264.7 macrophages (ELISA); type: cell-based, mouse; conditions: RAW264.7, 10 μg/mL peptide, 12 h (Figure 3 legend; method says 24 h), n = 5
Protocol: RAW264.7 cells were stimulated with or without 10 μg/mL peptides for 24 h at 37 °C in a humidified incubator with 5% CO2. Levels of TNF-α, IL-6, and IL-1β in the culture supernatant were measured using enzyme-linked immunosorbent assay (ELISA) kits according to the manufacturer’s instructions

[1] = test system: CTX-immunosuppressed Balb/c mice; assay: Body weight and immune organ indices in CTX-immunosuppressed mice; type: in vivo, mouse; conditions: CTX 80 mg/kg ip days 1-3, peptide 10 mg/kg ip days 4-10, n = 12
Excerpt: Female specific-pathogen-free (SPF) Balb/c mice (6-8 weeks of age, weighing 20 ± 2.0 g) were purchased from Charles River (Beijing, China). The mice were housed in a SPF environment at room temperature with a relative humidity of 55 ± 10% and allowed free access to food and water during the experiments. All of the animal protocols were approved by the Institutional Animal Care and Ethics Committee of the China Agricultural University (CAU20170430-4). […] Sigma-Aldrich, St. Louis, MO, USA) group, a LL-37 group, a Tα1 group, and a LTAa group. For the first 3 days, CTX (80 mg/kg mouse weight) was administered intraperitoneally once daily to establish the immunosuppressed animal model. From days 4 to 10 (7 days), peptides (10 mg/kg mouse weight) were administered intraperitoneally each day. The CTX group was only treated with CTX, and the control group was given sterile saline. The dose volume was 200 μL. Twenty-four hours after the last dose, the mice were killed and their tissues and blood collected for analysis. The body weight index was calculated in the following way:(2) Index (%)=final body weight-[…] body weight/initial body weight ×100% Spleen and thymus indices were calculated in the following way:(3) Index (mg/kg)=weight of thymus or spleen/body weight

TLR4-NF-κB pathway = assay: Western blot of TLR4-NF-κB pathway proteins in CTX-treated mice; type: in vivo, mouse; conditions: CTX-treated mice with or without LTAa, n = 3
Protocol: Sigma-Aldrich, St. Louis, MO, USA) group, a LL-37 group, a Tα1 group, and a LTAa group. For the first 3 days, CTX (80 mg/kg mouse weight) was administered intraperitoneally once daily to establish the immunosuppressed animal model. From days 4 to 10 (7 days), peptides (10 mg/kg mouse weight) were administered intraperitoneally each day. The CTX group was only treated with CTX, and the control group was given sterile saline. The dose volume was 200 μL. Twenty-four hours after the last dose, the mice were killed and their tissues and blood collected for analysis. The body weight index was calculated in the following way:(2) Index (%)=final body weight-[…] body weight/initial body weight ×100% Whole protein in the serum was collected using a whole-protein extraction kit (Nanjing KeyGEN Biotech, Nanjing, China) according to the manufacturer's instructions. The protein concentration was measured using a bicinchoninic acid kit (Nanjing KeyGEN Biotech). The different proteins were separated by sodium dodecyl sulfate polyacrylamide gel electrophoresis and transferred onto polyvinylidene difluoride membranes (Bio-Rad). […]

**Q.** For IGKEFKRIVQRIKDFLRNLVPRTEKEKKEVVE [LTAa], which “TNF-α, IL-6 and IL-1β production/secretion” value (RAW264.7 cells) is on record?
**A.** remarkable increases

**Q.** And the body weight [1]?
**A.** rapidly recovered their weight

**Q.** What about the “spleen and thymus index” value [1] of the same sequence?
**A.** reversed this effect

**Q.** What about the “TLR4, MyD88 and TRAF6 expression” value (TLR4-NF-κB pathway) of the same sequence?
**A.** increasing
